This note sets out measurements from US9169241B2, “Quinolinyloxyphenylsulfonamides” (Max-Planck-Gesellschaft Zur Forderung der Wissenschaften …, priority 2009, dated 2015).

For one data set, the system named is viable cells in culture. Description: Cell viability assay at 10 μM (CellTiter-Glo, Table VII).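 Note: graded A 0-20%; B 21-40%; C 41-60%; D over 60% viable cells relative to DMSO control.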 Format: cell-based. The note with it: compound 10 μM, 72 h. On the procedure: The CellTiter-Glo® Luminescent Cell Viability Assay (Promega Corporation. Madison, Wis., USA) is method a determining the number of viable cells in culture based on quantification of the ATP being present which is an indicator of metabolically active cells was used according to manufacturers protocol. In detail the assay was performed in a 96 well format were 1000 cells/well were incubated with compound at concentration 10 μM as well as DMSO control for 72 h in 100 μl cell culture medium. Percentage of inhibition was calculated compared to ATP amount of DMSO control.

Structures can show the parent of a compound that is named as a salt. Where two headings read alike, the source gives them in different places.

`COc1cc2c(Oc3ccc(NS(=O)(=O)c4cc(F)ccc4F)cc3F)ccnc2cc1OCCCN` (as salt: hydrochloride) [Example 122, N-{4-[7-(3-Amino-propoxy)-6-methoxy-quinolin-4-yloxy]-3-fluoro-phenyl}-2,5-difluoro-benzenesulfonamide hydrochloride] gave a melting point of 188 to 190 °C.

`COc1cc2c(Oc3ccc(NS(=O)(=O)c4ccccc4F)cc3F)ccnc2cc1OCCCN1CCCCC1` [Example 2, 2-Fluoro-N-{3-fluoro-4-[6-methoxy-7-(3-piperidin-1-yl-propoxy)-quinolin-4-yloxy]-phenyl}-benzenesulfonamide]: the melting point is 214 to 216 °C.

In the case of `COc1cc2c(Oc3ccc(NS(=O)(=O)c4ccc(Cl)cc4F)cc3F)ccnc2cc1OCCCN1CCCCC1` [Example 3, 4-Chloro-2-fluoro-N-{3-fluoro-4-[6-methoxy-7-(3-piperidin-1-yl-propoxy)-quinolin-4-yloxy]-phenyl}-benzenesulfonamide], the melting point was in the range of 122 to 124 °C. In addition, the viability at 10 µM in the data set with viable cells in culture (Homo sapiens, HCT-116, HCT116 def, read-out: percentage (%) of viable cells HCT 116def) was 0 to 20%. In addition, the viability at 10 µM in the data set with viable cells in culture (Homo sapiens, HCT-116, HCT116 wt, read-out: percentage (%) of viable cells HCT 116wt) fell in the range of 0 to 20%. For the same molecule, in the data set with viable cells in culture (Homo sapiens, HT-29, HT29, read-out: percentage (%) of viable cells HT29), the viability at 10 µM was in the range of 0 to 20%. Moreover, the viability at 10 µM in the data set on viable cells in culture (Homo sapiens, NCI-H358, H358, read-out: percentage (%) of viable cells H358) was 0 to 20%. Further, the viability at 10 µM with viable cells in culture (Homo sapiens, NCI-H1650, H1650, read-out: percentage (%) of viable cells H1650) was in the range of 41 to 60%. In addition, in the data set on viable cells in culture (Homo sapiens, NCI-H1666, H1666, read-out: percentage (%) of viable cells H1666), the viability at 10 µM is 41 to 60%. In addition, the viability at 10 µM in the data set on viable cells in culture (Homo sapiens, NCI-H1975, H1975, read-out: percentage (%) of viable cells H1975) was 21 to 40%. In addition, in the data set with viable cells in culture (Homo sapiens, NCI-H1993, H1993, read-out: percentage (%) of viable cells H1993), the viability at 10 µM fell in the range of 21 to 40%. The viability at 10 µM in the data set on viable cells in culture (Homo sapiens, A549, read-out: percentage (%) of viable cells A549) was 21 to 40%. The viability at 10 µM in the data set with viable cells in culture (Homo sapiens, HCC827, read-out: percentage (%) of viable cells HCC827) was above 60%. Besides, in the data set with viable cells in culture (Homo sapiens, SW480, read-out: percentage (%) of viable cells SW480), the viability at 10 µM is 0 to 20%. In addition, the viability at 10 µM in the data set on viable cells in culture (RKO, read-out: percentage (%) of viable cells RKO) lay within 0 to 20%.

In the case of `COc1cc2c(Oc3ccc(NS(=O)(=O)c4cccc(OC(F)F)c4)cc3F)ccnc2cc1OCCCN1CCN(C)CC1` [Example 30, 3-Difluoromethoxy-N-(3-fluoro-4-{6-methoxy-7-[3-(4-methyl-piperazin-1-yl)-propoxy]-quinolin-4-yloxy}-phenyl)-benzenesulfonamide], the melting point lay in the range of 95 to 97 °C.

Turning to `COc1cc2c(Oc3ccc(NS(=O)(=O)c4cccs4)cc3F)ccnc2cc1OCCCN1CCN(C)CC1` [Example 31, Thiophene-2-sulfonic acid (3-fluoro-4-{6-methoxy-7-[3-(4-methyl-piperazin-1-yl)-propoxy]-quinolin-4-yloxy}-phenyl)-amide], the melting point lay within 201 to 202 °C.

Take `COc1cc2c(Oc3ccc(NS(=O)(=O)c4cccc(C(F)(F)F)c4)cc3F)ccnc2cc1OCCCN1CCCC(C)C1` (centres unmarked) [Example 39, ′N-(3-Fluoro-4-{6-methoxy-7-[3-(3-methyl-piperidin-1-yl)-propoxy]-quinolin-4-yloxy}-phenyl)-3-trifluoromethyl-benzenesulfonamide]: the melting point lay in the range of 128 to 130 °C.

The molecule `COc1cccc(S(=O)(=O)Nc2ccc(Oc3ccnc4cc(OCCCN5CCCC(C)C5)c(OC)cc34)c(F)c2)c1` (centres unmarked) [Example 42, N-(3-Fluoro-4-{6-methoxy-7-[3-(3-methyl-piperidin-1-yl)-propoxy]-quinolin-4-yloxy}-phenyl)-3-methoxy-benzenesulfonamide] yielded a melting point of 172 to 174 °C.

On to `COc1cc2c(Oc3ccc(NS(=O)(=O)C4CC4)cc3F)ccnc2cc1OCCCN1CCCC(C)C1` (centres unmarked) [Example 60, Cyclopropanesulfonic acid (3-fluoro-4-{6-methoxy-7-[3-(3-methyl-piperidin-1-yl)-propoxy]-quinolin-4-yloxy}-phenyl)-amide], for which the melting point lay within 158 to 160 °C.

Molecule `COc1cc2c(Oc3ccc(NS(=O)(=O)c4ccn(C)n4)cc3F)ccnc2cc1OCCCN1CCCC(C)C1` (centres unmarked) [Example 61, 1-Methyl-1H-pyrazole-3-sulfonic acid (3-fluoro-4-{6-methoxy-7-[3-(3-methyl-piperidin-1-yl)-propoxy]-quinolin-4-yloxy}-phenyl)-amide] came in with a melting point of 164 to 166 °C.

Consider `CCn1cc(S(=O)(=O)Nc2ccc(Oc3ccnc4cc(OCCCN5CCCC(C)C5)c(OC)cc34)c(F)c2)cn1` (centres unmarked) [Example 68, 1-Ethyl-1H-pyrazole-4-sulfonic acid (3-fluoro-4-{6-methoxy-7-[3-(3-methyl-piperidin-1-yl)-propoxy]-quinolin-4-yloxy}-phenyl)-amide], for which the melting point was in the range of 152 to 154 °C.

On to `COc1cc2c(Oc3ccc(NS(=O)(=O)c4cccc(Cl)c4)cc3F)ccnc2cc1OCCCN1CCCC(C)C1` (centres unmarked) [Example 69, 3-Chloro-N-(3-fluoro-4-{6-methoxy-7-[3-(3-methyl-piperidin-1-yl)-propoxy]-quinolin-4-yloxy}-phenyl)-benzenesulfonamide], for which the melting point was 110 to 112 °C.

As for `COc1cc2c(Oc3ccc(NS(=O)(=O)c4ccccc4OC)cc3F)ccnc2cc1OCCCN1CCCC(C)C1` (centres unmarked) [Example 71, N-(3-Fluoro-4-{6-methoxy-7-[3-(3-methyl-piperidin-1-yl)-propoxy]-quinolin-4-yloxy}-phenyl)-2-methoxy-benzenesulfonamide], the melting point was 175 to 176 °C.

The molecule `COc1cc2c(Oc3ccc(NS(=O)(=O)/C=C/c4ccccc4)cc3F)ccnc2cc1OCCCN1CCCC(C)C1` (centres unmarked) [Example 73, 2-Phenyl-ethenesulfonic acid (3-fluoro-4-{6-methoxy-7-[3-(3-methyl-piperidin-1-yl)-propoxy]-quinolin-4-yloxy}-phenyl)-amide] had a melting point of 104 to 106 °C.

In turn, `COc1cc2c(Oc3ccc(NS(=O)(=O)c4cccc5cccnc45)cc3F)ccnc2cc1OCCCN1CCCC(C)C1` (centres unmarked) [Example 74, Quinoline-8-sulfonic acid (3-fluoro-4-{6-methoxy-7-[3-(3-methyl-piperidin-1-yl)-propoxy]-quinolin-4-yloxy}-phenyl)-amide] gave a melting point of 190 to 191 °C.

With `CCCCS(=O)(=O)Nc1ccc(Oc2ccnc3cc(OCCCN4CCOCC4)c(OC)cc23)c(F)c1` [Example 79, Butane-1-sulfonic acid {3-fluoro-4-[6-methoxy-7-(3-morpholin-4-yl-propoxy)-quinolin-4-yloxy]-phenyl}-amide], the melting point fell in the range of 98 to 100 °C.

Consider `COc1cc2c(Oc3ccc(NS(=O)(=O)c4ccccc4C(F)(F)F)cc3F)ccnc2cc1OCCCNC(=O)NC(C)(C)C` [Example 98, N-(4-{7-[3-(3-tert-Butyl-ureido)-propoxy]-6-methoxy-quinolin-4-yloxy}-3-fluoro-phenyl)-2-trifluoromethyl-benzenesulfonamide], for which the melting point was 106 to 108 °C.

On to `COc1cc2c(Oc3ccc(NS(=O)(=O)c4ccccc4OC)cc3F)ccnc2cc1OCCN1CCOCC1` [Example 103, N-{3-Fluoro-4-[6-methoxy-7-(2-morpholin-4-yl-ethoxy)-quinolin-4-yloxy]-phenyl}-2-methoxy-benzenesulfonamide], for which the melting point lay within 182 to 183 °C.

Molecule `COc1cc2c(Oc3ccc(NS(=O)(=O)c4cccs4)cc3F)ccnc2cc1OCCN1CCOCC1` [Example 105, Thiophene-2-sulfonic acid {3-fluoro-4-[6-methoxy-7-(2-morpholin-4-yl-ethoxy)-quinolin-4-yloxy]-phenyl}-amide] gave a melting point of 146 to 147 °C.

The molecule `COc1cc2c(Oc3ccc(NS(=O)(=O)c4ccn(C)n4)cc3F)ccnc2cc1OCCN1CCOCC1` [Example 107, 1-Methyl-1H-pyrazole-3-sulfonic acid {3-fluoro-4-[6-methoxy-7-(2-morpholin-4-yl-ethoxy)-quinolin-4-yloxy]-phenyl}-amide] registered a melting point of 213 to 214 °C.

In turn, `COc1cc2c(Oc3cccc(NS(=O)(=O)c4cc(F)ccc4F)c3)ccnc2cc1OCCCN1CCN(C)CC1` [Example 123, 2,5-Difluoro-N-(3-{6-methoxy-7-[3-(4-methyl-piperazin-1-yl)-propoxy]-quinolin-4-yloxy}-phenyl)-benzenesulfonamide] gave a melting point of 186 to 188 °C.

Molecule `COc1cc2c(Oc3ccc(NS(=O)(=O)c4ccccc4C(F)(F)F)c(F)c3)ccnc2cc1OCCCN1CCCC1` [Example 213, N-{2-Fluoro-4-[6-methoxy-7-(3-pyrrolidin-1-yl-propoxy)-quinolin-4-yloxy]-phenyl}-2-trifluoromethyl-benzenesulfonamide] came in with a melting point of 152 to 156 °C.

Turning to `COc1cc2c(Oc3ccc(NS(=O)(=O)c4ccccc4C(F)(F)F)cc3F)ccnc2cc1OCCCCN1CCOCC1` [Example 214, N-{3-Fluoro-4-[6-methoxy-7-(4-morpholin-4-yl-butoxy)-quinolin-4-yloxy]-phenyl}-2-trifluoromethyl-benzenesulfonamide], the melting point lay in the range of 102 to 104 °C.

`COc1cc2c(Oc3ccc(NS(=O)(=O)c4ccccc4C(F)(F)F)c(F)c3)ccnc2cc1OCCCN1CCCC(C)C1` (centres unmarked) [Example 215, N-(2-Fluoro-4-{6-methoxy-7-[3-(3-methyl-piperidin-1-yl)-propoxy]-quinolin-4-yloxy}-phenyl)-2-trifluoromethyl-benzenesulfonamide] gave a melting point of 125 to 126 °C.
